Test [1] concerns Calf thymus DNA. Briefly: Binding affinity to calf thymus duplex DNA assessed as melting temperature at 5 mM by differential scanning calorimetry (reference value: 51 degC). Type of test: nucleic-acid assay. The following applies: Bos taurus.
For test [2], the system named is Calf thymus DNA. Kind of test: Binding affinity to calf thymus duplex DNA assessed as induction of red shift at 280 nanometer at 25 to 200 uM in pH 7 phosphate buffer by circular dichroism method. Type of test: nucleic-acid assay. The note with it: Bos taurus.
Test [3] is filed under the species Bos taurus. Briefly: Binding affinity to calf thymus AT-rich duplex DNA assessed as induction of ellipticity at 25 to 200 uM in pH 7 phosphate buffer by circular dichroism method.
For test [4], the system named is Calf thymus DNA. Kind of test: Binding affinity to calf thymus duplex DNA assessed as increase in melting temperature by differential scanning calorimetry. Type of test: nucleic-acid assay. The note with it: Bos taurus.
The subject of test [5] is Calf thymus DNA. Briefly: Binding affinity to calf thymus duplex DNA assessed as induction of hyperchromicity at 280 nanometer at 25 to 200 uM in pH 7 phosphate buffer by circular dichroism method. Type of test: nucleic-acid assay. The note with it: Bos taurus.
In test [6] the test system is Calf thymus DNA. Kind of test: Binding affinity to calf thymus duplex DNA assessed as induction of ellipticity at 349 nanometer at 25 to 200 uM in pH 7 phosphate buffer by circular dichroism method. Type of test: nucleic-acid assay. The note with it: Bos taurus.
For test [7], the system named is Calf thymus DNA. Kind of test: Binding affinity to calf thymus duplex DNA assessed as change in melting temperature at 50 uM in pH 7 phosphate buffer by UV-vis spectrophotometric analysis. Type of test: nucleic-acid assay. The note with it: Bos taurus.
Test [8] is filed under the species Bos taurus. Kind of test: Binding affinity to calf thymus AT-rich duplex DNA assessed as induction of hyperchromicity at 25 to 200 uM in pH 7 phosphate buffer by circular dichroism method.
The subject of test [9] is Calf thymus DNA. Briefly: Binding affinity to calf thymus duplex DNA assessed as induction of hyperchromic shift at 257 nanometer at 50 uM in pH 5.4 phosphate buffer by UV-vis spectrophotometric analysis. The note with it: Bos taurus. Type of test: nucleic-acid assay.
In test [10] the test system is Calf thymus DNA. Briefly: Binding affinity to calf thymus duplex DNA assessed as induction of ellipticity at 25 to 200 uM in pH 7 phosphate buffer in presence of 0.1 M NaCl by circular dichroism method. Type of test: nucleic-acid assay. The following applies: Bos taurus.
The subject of test [11] is Calf thymus DNA. Kind of test: Binding affinity to calf thymus duplex DNA assessed as induction of ellipticity at 25 to 200 uM in pH 8.9 phosphate buffer by circular dichroism method. The note with it: Bos taurus. Type of test: nucleic-acid assay.
Test [12] is filed under the species Bos taurus. Briefly: Binding affinity to calf thymus GC-rich duplex DNA assessed as induction of ellipticity at 25 to 200 uM in pH 7 phosphate buffer by circular dichroism method.
For test [13], the system named is Calf thymus DNA. Briefly: Binding affinity to calf thymus duplex DNA assessed as red shift in soret peak at 50 uM in pH 7 phosphate buffer by UV-vis spectrophotometric analysis. Type of test: nucleic-acid assay. The note with it: Bos taurus.
In test [14] the test system is Calf thymus DNA. Briefly: Binding affinity to calf thymus duplex DNA assessed as induction of hyperchromic shift at 257 nanometer at 50 uM in pH 7 phosphate buffer by UV-vis spectrophotometric analysis. Type of test: nucleic-acid assay. The note with it: Bos taurus.
Test [15] deals with Calf thymus DNA. Briefly: Binding affinity to calf thymus duplex DNA assessed as induction of ellipticity at 25 to 200 uM in pH 5.4 phosphate buffer by circular dichroism method. Type of test: nucleic-acid assay. The following applies: Bos taurus.
For test [16], the system named is Calf thymus DNA. Kind of test: Binding affinity to calf thymus duplex DNA assessed as induction of red shift in soret peak at 50 uM in pH 8.9 phosphate buffer by UV-vis spectrophotometric analysis. Type of test: nucleic-acid assay. The note with it: Bos taurus.
Test [17] has as its system Calf thymus DNA. Briefly: Binding affinity to calf thymus duplex DNA assessed as induction of hyperchromic shift at 257 nanometer at 50 uM in pH 8.9 phosphate buffer by UV-vis spectrophotometric analysis. Type of test: nucleic-acid assay. The following applies: Bos taurus.
For test [18], the species on record is Bos taurus. Kind of test: Binding affinity to calf thymus GC-rich duplex DNA assessed as induction of hyperchromicity at 25 to 200 uM in pH 7 phosphate buffer by circular dichroism method.
Test [19] concerns Calf thymus DNA. Kind of test: Binding affinity to calf thymus duplex DNA assessed as melting temperature at 1 mM by differential scanning calorimetry (reference value: 51 degC). Type of test: nucleic-acid assay. The note with it: Bos taurus.
The subject of test [20] is Calf thymus DNA. Kind of test: Binding affinity to calf thymus duplex DNA assessed as induction of red shift in soret peak at 50 uM in pH 5.4 phosphate buffer by UV-vis spectrophotometric analysis. Type of test: nucleic-acid assay. The note with it: Bos taurus.
Test [21] has as its system Calf thymus DNA. Briefly: Binding affinity to calf thymus duplex DNA assessed as induction of ellipticity at 350 nanometer at 25 to 200 uM in pH 7 phosphate buffer by circular dichroism method. The note with it: Bos taurus. Type of test: nucleic-acid assay.
Test [22] concerns Calf thymus DNA. Briefly: Binding affinity to calf thymus duplex DNA assessed as melting temperature at 0.5 mM by differential scanning calorimetry (reference value: 51 degC). Type of test: nucleic-acid assay. The note with it: Bos taurus.
The subject of test [23] is Calf thymus DNA. Briefly: Binding affinity to calf thymus duplex DNA assessed as induction of hyperchromicity at 25 to 200 uM in pH 7 phosphate buffer by circular dichroism method. Type of test: nucleic-acid assay. The following applies: Bos taurus.
Test [24] has as its system Calf thymus DNA. Kind of test: Binding affinity to calf thymus duplex DNA assessed as induction of red shift in soret peak at 75 uM in pH 7 phosphate buffer by UV-vis spectrophotometric analysis. Type of test: nucleic-acid assay. The following applies: Bos taurus.
Test [25] relates to Calf thymus DNA. Briefly: Binding affinity to calf thymus duplex DNA assessed as induction of hyperchromic shift at 257 nanometer at 75 uM in pH 7 phosphate buffer by UV-vis spectrophotometric analysis. The following applies: Bos taurus. Type of test: nucleic-acid assay.
Test [26] concerns Calf thymus DNA. Briefly: Binding affinity to calf thymus duplex DNA assessed as change in melting temperature at 2.5 uM in pH 7 phosphate buffer by UV-vis spectrophotometric analysis. Type of test: nucleic-acid assay. The following applies: Bos taurus.
For test [27], the system named is Calf thymus DNA. Briefly: Binding affinity to calf thymus duplex DNA assessed as induction of ellipticity at 2.5 to 63 uM in pH 7 phosphate buffer by circular dichroism method. The note with it: Bos taurus. Type of test: nucleic-acid assay.

The source made the active and inactive calls. No cut-off for these calls is given here.

On to `c1ccc2c(-c3nccc4c3[nH]c3ccccc34)c[nH]c2c1`, for which the values for the Tm in the test with Calf thymus DNA [1] and in the test with Calf thymus DNA [19] were 67 °C and 56 to 67 °C, respectively. Also, the outcome in the test with Calf thymus DNA [2], in the test on Calf thymus DNA [5], in the test on Calf thymus DNA [6], with Calf thymus DNA [9], in the test on Calf thymus DNA [10] and in the test on Calf thymus DNA [14] was Active. In addition, the outcome with Calf thymus DNA [15], with Calf thymus DNA [16], with Calf thymus DNA [17] and in the test with Calf thymus DNA [20] was Active. Moreover, the outcome in the test listed under Bos taurus [3], in the test filed under Bos taurus [8], in the test with Calf thymus DNA [11], in the test listed under Bos taurus [12] and in the test filed under Bos taurus [18] was inactive. The figures for the Activity entry with Calf thymus DNA [4] and with Calf thymus DNA [13] were “Dose-dependent effect” and 20 nm, respectively. Also, the ΔTm in the test on Calf thymus DNA [7] amounted to 2.3 °C.

Turning to `Cc1nccc2c1[nH]c1ccccc12`, the ΔTm in the test with Calf thymus DNA [7] came out at 4 °C. Also, the result in the test on Calf thymus DNA [21] was inactive. The outcome with Calf thymus DNA [13] and with Calf thymus DNA [14] was Active. Moreover, in the test on Calf thymus DNA [22], the Tm came to 65 °C.

On to `C[n+]1ccc2c([nH]c3ccccc32)c1-c1c[nH]c2ccccc12`, for which the outcome in the test on Calf thymus DNA [23] and with Calf thymus DNA [21] was inactive.

As to `c1ccc2c(c1)[nH]c1cnccc12`, the outcome with Calf thymus DNA [24] and in the test with Calf thymus DNA [25] was Active. Further, the result in the test with Calf thymus DNA [21] was inactive.

Consider `CC[n+]1c(-c2ccccc2)c2cc(N)ccc2c2ccc(N)cc21`, for which the ΔTm with Calf thymus DNA [26] turned out to be 8.9 °C. In the test with Calf thymus DNA [27], the result was Active. Also, in the test on Calf thymus DNA [22], the Tm amounted to 75 °C.

(Values after ChEMBL document CHEMBL4431382, “DNA-binding studies of the natural β-carboline eudistomin U” (Bioorg Med Chem Lett, 2016).)
